Data as given in a melting point compilation (Tetko et al.; mined from patent text by program, amines drawn as free bases though some values may be those of a salt).
Residues, ends and D or L forms follow the SMILES beside them. *: point of attachment. Cbz = O=C(OCc1ccccc1)*; Boc = CC(C)(C)OC(=O)*

Row | Structure (SMILES) | melting point
1 | C=CCOC(=O)C(C(=O)OCC=C)=C1SC(O)C(O)S1 (stereo unspecified) | 81.2 °C
2 | COc1cc2c(cc1OC)C(C(CO)CO)=NCC2 | 129 °C
3 | CC(C)(C)c1cc(CN2CC(N(O)C(=O)Oc3ccccc3)C2)cc(C(C)(C)C)c1O | 161 to 163 °C
4 | CNC1=Nc2sc(Cl)cc2C(c2ccccc2)=NC1 | 247 to 250 °C
5 | NC(=O)C1CCc2[nH]c3cc(Cl)c(F)cc3c2C1 (stereo unspecified) | 245 to 246 °C
6 | CCOC(=O)N1CCN(c2cc3nc(C(C)(C)C)sc3cc2[N+](=O)[O-])CC1 | 100 to 102 °C
7 | COc1ccc2nn(C)cc2c1C1CC1CNC(C)=O (stereo unspecified) | 104 to 105 °C
8 | CN(C)C=NC(=N[N+](=O)[O-])NC1CC1 | 120 to 122 °C
9 | CC(O)c1cc2c(s1)C(C)(C)CCC2(C)C (stereo unspecified) | 53 to 55 °C
10 | CCOC=Nc1sc2c(c1C#N)CCN(C)C2 | 88 to 89 °C
11 | O=CCc1c(O)c(Br)cc(F)c1F | 46.5 to 48 °C
12 | ClCCCCCOc1ccccc1OCCCCCCl | 61 °C
13 | Cc1nc[nH]c1CSCCN=C(NC#N)NCCc1c[nH]cn1 | 170 to 171 °C
14 | CCOC(=O)C(=CC=C(SC)C(=O)c1ccc(N2CCCCC2)cc1)N(C)C | 113 °C
15 | CCN(CC)CC#CCCC(=O)C(O)(c1ccccc1)C1CCCC1 (stereo unspecified) | 128 to 129 °C
16 | CC1C(C(=O)O)CC2CC1C2(C)C (single isomer, unassigned; (+)) | 128 °C
17 | C1=C(c2c[nH]c3ccccc23)CCN(CC2COc3ccc4ncccc4c3O2)C1 (stereo unspecified) | 217 °C
18 | CCCCN(CCCC)c1ccc(C=CC=CC2=C(C#N)C(=C(C#N)C#N)OC2(C)C(F)(F)F)c(OC)c1 (stereo unspecified) | 169 to 170 °C
19 | COc1cc(Nc2c(C#N)cnc3cc(Cl)c([N+](=O)[O-])cc23)cc(OC)c1OC | 215 to 217 °C
20 | CN(Cc1ccccc1)Cc1nc(-c2ncn3c2CN(C)C(=O)c2cc(F)ccc2-3)no1 | 161 to 162 °C
21 | NC1CCC(CCN2CCN(c3ccccc3)CC2)CC1 (stereo unspecified) | 65 to 70 °C

Row | Structure (SMILES) | melting point
22 | CCc1cc(=O)n2c3c(cc(C(O)(C(F)(F)F)C(F)(F)F)cc13)CCC2 | 209 to 210 °C
23 | O=C(NCCn1ccnc1)c1cc(N2CC2)c([N+](=O)[O-])cc1[N+](=O)[O-] | > 250 °C
24 | C[C@@H]1[C@H](NC(=O)C(=O)c2csc(N)n2)C(=O)N1S(=O)(=O)O | > 300 °C
25 | CC(C)(C)OC(=O)N1CCC(c2c(F)cc(N3C[C@H](COS(C)(=O)=O)OC3=O)cc2F)CC1 | 125 to 126 °C
26 | CC(C)=CCOC(C)C1CCC2=C3C=CC4C(C)(C)C(O)CCC4(C)C3CCC21C (stereo unspecified) | 171 to 174 °C
27 | O=C1NC(CO)(CO)CO1 | 107 to 108 °C
28 | C#CCn1nnc2cc3c(=O)n(C(C)Cn4ncnn4)nnc3cc2c1=O (stereo unspecified) | 209 to 211 °C
29 | Cn1c(C(F)(F)F)cc(=O)n(-c2cc(N)c(Cl)cc2F)c1=O | 132 to 135 °C
30 | CC(NC(=O)OCc1ccccc1)C(=O)NC(C(=O)NC(CCCCNC(=O)OC(C)(C)C)C(N)=O)C(C)C (stereo not drawn) (Cbz-Ala-Val-Lys(Boc)-NH2; configuration not given here) | 214 to 217 °C
31 | COc1cc(CO)cnc1Cl | 60 to 63 °C
32 | CC(C)(C)OC(=O)Nc1cc(N2CCOCC2)c(I)cc1N | 139 to 143 °C
33 | CCCCCCC/C=C/C(=O)NC | 60 to 63 °C
34 | OC(CCN1CC=C(c2ccccc2)CC1)c1ccc(CCc2ccc(Cl)cc2)cc1 (stereo unspecified) | 158 to 160 °C
35 | CC(C)OC(=O)NS(=O)(=O)Cl | 66 °C
36 | C=Cc1ncn2c1[C@@H]1CCN1C(=O)c1c(Cl)cccc1-2 | 171 to 172 °C
37 | CCC1(C)CC2(C(=O)N(C)C(=O)N2C)C(C)C(C)(CC)N1C (stereo unspecified) | 77 to 88 °C
38 | Oc1ccc(C2CCC(=CCC3OCCO3)CC2)cc1 (stereo unspecified) | 126 °C
39 | CS(=O)(=O)c1ccc(-c2cnn(CC(F)(F)F)c(=O)c2SC2CCCC2)cc1 | 149 to 151 °C
40 | O=c1[nH]c2cc(F)c(NCCCC3CCCOC3)cc2o1 (stereo unspecified) | 144 to 145 °C
41 | CCCCC(=O)c1ccc(O)c(Cl)c1Cl | 107 to 110 °C

Second part, the compound after the results:

Row | melting point | Structure (SMILES)
42 | 242 °C | Cc1ccc(-n2nc3c4cc(/C=C/C(=O)OCc5ccccc5)ccc4[nH]c(=O)n3c2=O)cc1
43 | 104 to 105 °C | CN(C=O)c1ccc(C2OC(C)(C)N=C2c2ccccc2)cc1 (stereo unspecified)
44 | 125 to 126 °C | CSc1ccc(NC(=O)CCCCCSc2nc3ccccc3o2)c(SC)n1
45 | 207 to 209 °C | CCOC(=O)c1cc2c3n(ccc-2n1)CC(C(C)C)=N3
46 | 190 °C | N#Cc1cnn2c(C(F)(F)F)cc(-c3ccc(F)c(Cl)c3)nc12
47 | 159 °C | CC(=O)CC(=O)Nc1cccc(OC(=O)NC2CCCCC2)c1
48 | 189 to 191 °C | O=CN(O)C(CCc1ccc(C(=O)O)cc1)CS(=O)(=O)c1ccc(Oc2ccc(OC(F)(F)F)cc2)cc1 (stereo unspecified)
49 | 215 to 216 °C | Cc1ccc(-n2c(=O)c(C)nc3cccnc32)cc1
50 | 134 to 135 °C | OCc1cc2cc(-c3ccccc3)ccc2o1
51 | 179 to 180 °C | COc1ccn2nc(-c3ccccc3)c(-c3ccc(=O)n(C4CCCN(C)C4)n3)c2c1 (stereo unspecified)
52 | 144 to 148 °C | CCc1noc(C)c1-c1[nH]c2ccccc2c1C(=O)CCC(=O)N(C)C
53 | 232 to 234 °C | N#Cc1ncccc1-c1ccc2c(c1)C1(CCCCC1)C(=O)N2
54 | 84 °C | COc1ccc(-c2cc(F)cc3c2NC(CN)CO3)c(Cl)c1 (stereo unspecified)
55 | 296 to 298 °C | Nc1nc(-c2cccc(C(F)(F)F)c2)nc2nc(-c3ccco3)nn12
56 | 294 to 295 °C | N#Cc1ccc(-c2ccc(-c3ccc(C#N)cc3)o2)cc1
57 | 238 to 240 °C | CN1CCN(c2ccc(NC(=O)n3ccc4cc(Oc5cc(CC(N)=O)ncn5)ccc43)cc2C(F)(F)F)CC1
58 | 160 to 163 °C | CCOC(=O)c1ccc(NC(=O)c2cc(C)no2)cc1
59 | 120 to 122 °C | O=C(COc1ccc(Cl)cc1)N1Cc2cccn2Cc2ccccc21
60 | 108 °C | Cc1c(C=CC#N)c2c(c(C)c1OCc1ccccc1)CCC(C)(C)O2
61 | 169 to 171 °C | CCCCC(CC)C(=O)Nc1ccc2c(c1)c(Cc1ccc(C(=O)NS(=O)(=O)c3ccccc3)cc1OC)cn2C (stereo unspecified)

Row | melting point | Structure (SMILES)
62 | > 300 °C | CC(C)[Si](C#Cc1ccc2c(c1)c1cccc3c1c2c1cccc2c4cc(C#C[Si](C(C)C)(C(C)C)C(C)C)ccc4c3c21)(C(C)C)C(C)C
63 | 145 to 146 °C | CC(C)Cn1c(CCl)c(-c2ccccc2)c2cc(Br)ccc2c1=O
64 | 315 to 317 °C | O=C1Nc2cccc(-c3ccc(C(=O)O)cc3)c2/C1=C/c1ccc[nH]1
65 | 152 °C | Cc1c(C=NO)c2ccccc2n1C(=O)c1ccc(Cl)cc1
66 | 198 °C | Cc1cccc(-c2n[nH]cc2-c2ccnc(-c3ccc(C#N)cc3)c2)n1
67 | 203 to 205 °C | O=C(O)CCc1nc(-c2cc3ccccc3o2)cs1
68 | 194 °C | O=C(Nc1ccc2ccc(Oc3ccccc3)nc2n1)c1cccc(Br)c1
69 | 127 to 130 °C | O=C1c2ccccc2COc2c(Br)cccc21
70 | 108 °C | O=C(O)CCCCOc1cccc2occc12
71 | 183 °C | CON(C)C(=O)c1cc(-n2c(Cl)nc(C(F)(F)F)cc2=O)c(F)cc1Cl
72 | 207 °C | O=C(Nc1cccc2c1C(=O)c1c-2n[nH]c1-c1ccc(N2CCNCC2)cc1)NN1CCC[C@@H]1COCc1ccccc1
73 | 302 to 304 °C | Cc1cc2c(cc1C)-n1cnnc1C=C(c1ccc(-n3c(C)nc4cnccc43)cc1)N2
74 | 183 to 184 °C | CC(=O)NC[C@H]1CN(c2ccc(-n3cccn3)c(F)c2)C(=O)O1
75 | 97.5 to 98.5 °C | COCc1cc(C(O)CNCCCCCCOCCc2ccc(OC)cc2)ccc1O (stereo unspecified)
76 | 161 °C | CCOC(=O)c1cc2sc(C)c(N(C)S(=O)(=O)c3cccs3)c2[nH]1
77 | 122 to 124 °C | Cc1ccc2c(c1)C(O)(c1ccc3c(c1)OCO3)C(=O)N2Cc1ccc(Cl)cc1 (stereo unspecified)
78 | 93 to 95 °C | COC(=O)C(=O)c1ccc(OCCCCOc2ccc3ccccc3c2)cc1
79 | 124 to 125 °C | Cc1c(COc2cccc3cc(NS(=O)(=O)C(F)(F)F)ccc23)cccc1-c1ccccc1
80 | 201 °C | Clc1ccc(C2(Cn3ccnc3)OCC(COc3ccc(N4CCN(c5ccc(-n6cnnn6)cc5)CC4)cc3)O2)c(Cl)c1 (stereo unspecified)
81 | 84 °C | O=c1c2ccccc2c(-c2ccccc2)cn1CCCO

Row | melting point | Structure (SMILES)
82 | 108 to 110 °C | c1ccc2c(c1)NCc1cccn1-2
83 | 66 to 67 °C | COc1c(OCc2ccccc2)ccc2cc[nH]c12
84 | 175 °C | CCOC(=O)N1CCCC(Nc2nc3ccccc3[nH]2)CC1 (stereo unspecified)
85 | 166 to 168 °C | Cc1ccccc1C(=O)N1CCC(=NO)c2ccc(Cl)cc21
86 | 130 °C | COc1cc(C(F)(F)F)cc(Cl)c1Oc1ccc2ccc(O)cc2c1
87 | 144 to 145 °C | Oc1ccc(Cl)cc1CN1COC(c2ccc(C(F)(F)F)cc2)=N1
88 | 293 °C | O=C(Nc1ccc2c(c1)S(=O)(=O)NC1CCCN21)c1ccccc1 (stereo unspecified)
89 | 222 to 224 °C | O=c1c2cnccc2n(-c2cccc(Cl)c2)c2ncccc12
90 | 113 to 115 °C | CN1C(=O)Cc2ccccc2C1=O
91 | 235 to 237 °C | COc1cc2nc(N)nc(-c3ccccc3OC(F)(F)F)c2cc1OC
92 | 193 to 198 °C | COc1ccccc1-c1nsc2ccc([N+](=O)[O-])cc12
93 | 242 to 243 °C | O=C(O)CCC1(NC(=O)c2ccc(Cl)c(Cl)c2)C(=O)N(CCCc2ccccc2)c2ccccc21 (stereo unspecified)
94 | 114 to 116 °C | COc1ccc(-c2nc(C(F)F)oc2-c2ccc(OCCO)cc2)cc1
95 | 233 to 235 °C | COc1cc(NS(=O)(=O)c2ccc(N3CCNC3=O)cc2)cc(OC)c1OC
96 | 208 °C | N#CC1=C(c2ccc(Br)s2)Nc2n[nH]cc2C1c1cccc2nonc12 (stereo unspecified)
97 | 103 to 105 °C | COC(=O)c1csc(-c2ccc(F)cc2)n1
98 | 258 to 259 °C | Cc1cc2nc3ccc(C#N)cn3c(=O)c2s1
99 | 95 to 97 °C | COC(=O)c1ccc(-c2cccc(C=O)c2)cc1
100 | 226 to 228 °C | CC(=O)Nc1ccc(OCC(O)CN2CCC(NC(=O)c3ccccc3)CC2)cc1 (stereo unspecified)
101 | 117 to 118 °C | CC(=O)OCc1ccc(Sc2ccccc2C(=O)N(C)C)c([N+](=O)[O-])c1
